Experimental data reported in BindingDB's records for doi:10.1007/s10822-022-00478-x (Roche Innovation Center Basel, F. Hoffmann-La Roche Ltd., 2022).

target: cAMP and cAMP-inhibited cGMP 3',5'-cyclic phosphodiesterase 10A (Homo sapiens, UniProt Q9Y233); test: PDE10A assay
Summary of the method: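 Scintillation proximity readout of [3H]cGMP hydrolysis (50 nM final substrate, 15 min) by 2 ng/well human PDE10A after 15 min compound preincubation at RT, pH 7.5 with MgCl2. Four-parameter logistic fit gave IC50, reported as pIC50.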

IC50 [nM] | SMILES
35 | Cn1ncc(Br)c1C(=O)Nc1ccn2nc(-c3ccccc3)nc2c1 [Roche-Dataset for PDE10A, Compound 371]
4.99 | Cn1ncc(C(=O)N2CC(F)C2)c1C(=O)Nc1ccn2nc(N3CCOCC3)nc2c1 [Roche-Dataset for PDE10A, Compound 372]
0.47 | Cc1cc(Cl)c(C)n2nc(CCc3nc(N4CCCC4)n(C)n3)nc12 [Roche-Dataset for PDE10A, Compound 374]
8.73 | Cc1ccc2nc(/C=C/c3nc(N4CCCC4)nn3C)nn2c1C [Roche-Dataset for PDE10A, Compound 375]
8.4 | COC[C@H]1CCCN1c1n[nH]c(CCc2nc3c(C)ncc(C)n3n2)n1 [Roche-Dataset for PDE10A, Compound 376]
19 | Cn1ncc(C(=O)O)c1C(=O)Nc1ccc2cc(-c3ccccc3)nn2c1 [Roche-Dataset for PDE10A, Compound 377]
15 | COC(=O)c1cnn(C)c1C(=O)Nc1ccn2nc(-c3ccccc3)nc2c1 [Roche-Dataset for PDE10A, Compound 378]
4.41 | COc1ccccc1-c1cn2c(n1)C[C@H](NC(=O)c1c(C(=O)N3CC(F)C3)cnn1C)CC2 [Roche-Dataset for PDE10A, Compound 379]
25 | Cn1ncc(C(=O)O)c1C(=O)Nc1ccn2nc(-c3cccc(F)c3)nc2c1 [Roche-Dataset for PDE10A, Compound 380]
641 | O=C(O)c1cccnc1C(=O)Nc1ccn2nc(-c3ccccc3)nc2c1 [Roche-Dataset for PDE10A, Compound 381]
24 | Cc1nc(C)n2nc(/C=C/c3nc(N4CCCC4)nn3C)nc2c1Cl [Roche-Dataset for PDE10A, Compound 382]
250 | O=C(NCCc1ccc(C(F)(F)F)cc1)c1nc(C2CC2)cnc1Nc1cncnc1 [Roche-Dataset for PDE10A, Compound 383]
35 | Cc1cc(NC(=O)c2ccc3cc(-c4ccccc4)nn3c2)ccn1 [Roche-Dataset for PDE10A, Compound 384]
71 | O=C(Nc1ccn2nc(-c3ccccc3)nc2c1)c1cncc(Cl)c1 [Roche-Dataset for PDE10A, Compound 385]
1.47 | COCc1ccc(Nc2cncnc2)c(C(=O)Nc2ccnn2-c2ccccn2)n1 [Roche-Dataset for PDE10A, Compound 386]
5.53 | COC[C@H]1CCCN1c1nc(/C=C/c2nc3c(C)ncc(C)n3n2)n(C)n1 [Roche-Dataset for PDE10A, Compound 388]
87 | COCc1cc(C(=O)Nc2ccn3nc(-c4ccccc4)nc3c2)n(C)n1 [Roche-Dataset for PDE10A, Compound 390]
197 | CNC(=O)c1cc2[nH]c(-c3ccccc3)nc2cc1NC(=O)c1cc(C)n(C)n1 [Roche-Dataset for PDE10A, Compound 391]
43 | Cc1ncc(C)n2nc(CCc3nc(N4CC[C@@H](C)[C@H]4C)nn3C)nc12 [Roche-Dataset for PDE10A, Compound 392]
4.58 | Cc1c(Cl)ccc2nc(/C=C/c3nc(N4CCCC4)n(C)n3)nn12 [Roche-Dataset for PDE10A, Compound 393]
570 | Cn1ncc(C(=O)O)c1C(=O)Nc1ccn2nc(-c3ccnc(F)c3)nc2c1 [Roche-Dataset for PDE10A, Compound 394]

IC50 [nM] | SMILES
17400 | Cc1[nH]c(-c2ccncc2)nc1CCN1C(=O)c2ccccc2C1=O [Roche-Dataset for PDE10A, Compound 395]
107 | Cc1nn(C)c2nc(OCc3nc(-c4ccccc4)cn3C)ncc12 [Roche-Dataset for PDE10A, Compound 396]
1.86 | Cn1ncc(C(=O)N2CCC2)c1C(=O)Nc1ccc2sc(N3CCOCC3)nc2c1 [Roche-Dataset for PDE10A, Compound 397]
354 | O=C(Nc1cc(Cl)ncc1Br)c1ccc2cc(-c3ccccc3)nn2c1 [Roche-Dataset for PDE10A, Compound 399]
82 | Cc1ncc(C)n2nc(CCc3ncn(-c4ccccc4)n3)nc12 [Roche-Dataset for PDE10A, Compound 400]
16 | Cn1ncc(C(N)=O)c1C(=O)Nc1ccn2nc(-c3ccccc3)nc2c1 [Roche-Dataset for PDE10A, Compound 401]
3.25 | Cn1ncc(C(=O)N2CCCC2)c1C(=O)Nc1ccn2nc(N3CCOCC3)nc2c1 [Roche-Dataset for PDE10A, Compound 402]
7.71 | Cn1cc(-c2ccccc2)nc1COc1nc2ccccc2nc1N1CCCC1 [Roche-Dataset for PDE10A, Compound 403]
444 | CN(C)C(=O)c1cc(NC(=O)c2nc(C3CC3)ccc2Nc2cncnc2)n(C)n1 [Roche-Dataset for PDE10A, Compound 404]
12 | Cc1c(Br)cn2nc(/C=C/c3nc(N4CCCC4)nn3C)nc2c1C [Roche-Dataset for PDE10A, Compound 406]
628 | Cn1nc(N2CCCC2)nc1CCc1nc2c(F)cc(F)cn2n1 [Roche-Dataset for PDE10A, Compound 407]
2.22 | Cn1ncc(C(=O)N2CCC2)c1C(=O)N[C@@H]1CCn2cc(-c3ccccc3Cl)nc2C1 [Roche-Dataset for PDE10A, Compound 408]
63 | CN(C)C(=O)c1nn(C)cc1C(=O)Nc1ccn2cc(-c3ccccc3)nc2n1 [Roche-Dataset for PDE10A, Compound 409]
179 | Cn1ncc(S(C)(=O)=O)c1C(=O)Nc1ccc2cc(-c3ccccc3)nn2c1 [Roche-Dataset for PDE10A, Compound 410]
61 | COc1nc(OCc2nc(-c3ccccc3)cn2C)nc2ccccc12 [Roche-Dataset for PDE10A, Compound 411]
16 | Cn1ncc(C(=O)N2CCC2)c1C(=O)Nc1ccc2nc(N3CCOCC3)nn2c1 [Roche-Dataset for PDE10A, Compound 412]
302 | O=C(Nc1ccnc(Cl)c1)c1cn(-c2ccc3ccccc3n2)cn1 [Roche-Dataset for PDE10A, Compound 414]
2.45 | Cn1ncc(C(=O)N2CCOCC2)c1C(=O)Nc1ccc2nc(N3CCCC3)nn2c1 [Roche-Dataset for PDE10A, Compound 415]
88 | Cn1cc(S(C)(=O)=O)c(C(=O)Nc2ccc3cc(-c4ccccc4)nn3c2)n1 [Roche-Dataset for PDE10A, Compound 416]
2.62 | CN(c1nc2cc(NC(=O)c3c(C(=O)N4CCOCC4)cnn3C)ccn2n1)C1CC1 [Roche-Dataset for PDE10A, Compound 418]
249 | O=C(Nc1cc(Cl)ncn1)c1ccc2cc(-c3ccccc3)nn2c1 [Roche-Dataset for PDE10A, Compound 419]

IC50 [nM] | SMILES
194 | O=C(Nc1ccn2nc(-c3ccccc3)nc2c1)c1onc2ccccc12 [Roche-Dataset for PDE10A, Compound 420]
8.81 | CN(C)C(=O)c1cnn(C)c1C(=O)Nc1ccn2nc(-c3ccnc(S(C)(=O)=O)c3)nc2c1 [Roche-Dataset for PDE10A, Compound 421]
4.83 | Cn1ncc(C(=O)N2CCC2)c1C(=O)Nc1cc2nc(N3CCOCC3)nn2cn1 [Roche-Dataset for PDE10A, Compound 422]
0.24 | O=C(Nc1ccc2[nH]c(-c3ccccc3)nc2c1)c1nc(C2CC2)ccc1Nc1cncnc1 [Roche-Dataset for PDE10A, Compound 423]
1340 | CCc1nc(C)c(C(=O)Nc2cc3nc(-c4ccccc4)[nH]c3cc2C(=O)O)o1 [Roche-Dataset for PDE10A, Compound 424]
5 | Cn1ncc(C(=O)N2CCOCC2)c1C(=O)Nc1cc2nc(N3CCCC3)nn2cn1 [Roche-Dataset for PDE10A, Compound 426]
15 | CC(C)OC(=O)c1c(C(=O)Nc2ccn3nc(-c4ccccc4)nc3c2)cnn1C [Roche-Dataset for PDE10A, Compound 428]
429 | Cn1nc(N2CCCC2)nc1/C=C/c1nc(N2CCCC2)n(C)n1 [Roche-Dataset for PDE10A, Compound 429]
355 | CNC(=O)c1cc2[nH]c(-c3ccccc3)nc2cc1NC(=O)c1cc(C)n[nH]1 [Roche-Dataset for PDE10A, Compound 430]
7.54 | Cc1nc(C(F)(F)F)n2nc(CCc3nc(N4CCCC4)nn3C)nc2c1C [Roche-Dataset for PDE10A, Compound 432]
208 | Cn1ncc(Cl)c1C(=O)Nc1ccn2nc(-c3ccccc3)nc2c1 [Roche-Dataset for PDE10A, Compound 433]
3.43 | O=C(Nc1ccnn1-c1ccccn1)c1nc(C2CC2)ccc1Nc1cncnc1 [Roche-Dataset for PDE10A, Compound 435]
18 | Cc1cnc(C)n2nc(CCc3nc(N4CCCC4)nn3C3CC3)nc12 [Roche-Dataset for PDE10A, Compound 436]
150 | O=C(Nc1ccn2nc(-c3ccccc3)nc2c1)c1conc1C(=O)NC1CC1 [Roche-Dataset for PDE10A, Compound 437]
879 | Cn1ncc(C(=O)N2CCC2)c1C(=O)Nc1cc(-c2ccccc2Cl)nn1C1CCCC1 [Roche-Dataset for PDE10A, Compound 438]
69 | CNC(=O)c1cc2[nH]c(-c3ccccc3)nc2cc1NC(=O)c1c(C(=O)N2CCC2)cnn1C [Roche-Dataset for PDE10A, Compound 439]
12 | Cc1ncc(C)n2nc(/C=C/c3nc(-c4cccn4C)nn3C)nc12 [Roche-Dataset for PDE10A, Compound 440]
0.81 | CN(C)C(=O)c1cnn(C)c1C(=O)Nc1cc2nc(-c3ccccc3)nn2cn1 [Roche-Dataset for PDE10A, Compound 442]
20 | Cc1cnc(C)n2nc(/C=C/c3nc(N4CCCC4)n(C)n3)nc12 [Roche-Dataset for PDE10A, Compound 443]
3.41 | O=C(Nc1ccn(Cc2ccccc2)n1)c1nc(C2CC2)ccc1Nc1cncnc1 [Roche-Dataset for PDE10A, Compound 446]
28 | Cc1ncc(C)n2nc(CCc3nc(N4CC[C@@H](C)C4)nn3C)nc12 [Roche-Dataset for PDE10A, Compound 447]
